As a reminder, the IC50 is the concentration that gives 50% inhibition. The term EC50 denotes the concentration that produces a half-maximal response. The term AC50 denotes the concentration giving half of the maximal activity seen.

Data on nine compounds can be found in ChEMBL document CHEMBL1201862, “PubChem BioAssay data set” (2004).

For experiment [1], the target named is Eukaryotic translation initiation factor 4H (Homo sapiens, UniProt Q15056). Briefly: human eIF4H binding inhibitors, primary screen, translation initiation inhibitor project, biochemical, uHTS, fluorescence polarization (AID 2012). (In fluorescence polarisation assays a small probe gives low polarisation when free and higher when bound to something large.)

The target in experiment [2] is Polyadenylate-binding protein 1 (Homo sapiens, UniProt P11940). Briefly: PABP poly(A) RNA binding inhibitors, primary screen, biochemical, fluorescence polarization, uHTS (AID 2014).
Polyadenylate-binding protein 1, sequence (P11940 whole entry): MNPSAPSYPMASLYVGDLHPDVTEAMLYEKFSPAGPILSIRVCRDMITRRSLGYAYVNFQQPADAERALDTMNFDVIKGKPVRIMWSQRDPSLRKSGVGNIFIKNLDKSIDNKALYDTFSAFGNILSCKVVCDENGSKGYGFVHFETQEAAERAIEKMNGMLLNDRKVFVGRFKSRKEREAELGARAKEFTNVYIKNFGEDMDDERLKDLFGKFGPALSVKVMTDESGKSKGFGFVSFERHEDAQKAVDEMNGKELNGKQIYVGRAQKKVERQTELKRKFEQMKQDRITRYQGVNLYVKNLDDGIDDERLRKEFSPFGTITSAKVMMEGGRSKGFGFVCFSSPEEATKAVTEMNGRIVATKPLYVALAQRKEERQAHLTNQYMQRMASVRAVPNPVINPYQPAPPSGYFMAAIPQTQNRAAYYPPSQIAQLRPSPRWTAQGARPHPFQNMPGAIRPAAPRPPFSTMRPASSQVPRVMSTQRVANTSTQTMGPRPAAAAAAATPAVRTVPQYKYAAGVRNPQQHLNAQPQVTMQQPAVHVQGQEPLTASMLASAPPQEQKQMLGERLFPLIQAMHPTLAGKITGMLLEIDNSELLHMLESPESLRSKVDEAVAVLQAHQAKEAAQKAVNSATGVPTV
Experiment [3] addresses DNA dC->dU-editing enzyme APOBEC-3A (Homo sapiens, UniProt P31941). Put plainly: Dose Response confirmation of small molecule APOBEC3A DNA Deaminase Inhibitors via a fluorescence-based single-stranded DNA deaminase assay. [Related pubchem assays (depositor defined):AID493011, AID493024]. In kind it is functional.
Experiment [4] has as its target DNA dC->dU-editing enzyme APOBEC-3G (Homo sapiens, UniProt Q9HC16). In kind it is functional.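 Note: Dose-response counterscreen measuring inhibition of APOBEC3G DNA deaminase activity, run while confirming APOBEC3A inhibitors.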
The target in a further experiment is T1, Coagulation factor XII (Homo sapiens, UniProt P00748).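 Note: activated factor XIIa alpha cleaving a fluorogenic AMC peptide substrate; inhibitor potency from loss of enzyme activity.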
T1 sequence (P00748 whole entry): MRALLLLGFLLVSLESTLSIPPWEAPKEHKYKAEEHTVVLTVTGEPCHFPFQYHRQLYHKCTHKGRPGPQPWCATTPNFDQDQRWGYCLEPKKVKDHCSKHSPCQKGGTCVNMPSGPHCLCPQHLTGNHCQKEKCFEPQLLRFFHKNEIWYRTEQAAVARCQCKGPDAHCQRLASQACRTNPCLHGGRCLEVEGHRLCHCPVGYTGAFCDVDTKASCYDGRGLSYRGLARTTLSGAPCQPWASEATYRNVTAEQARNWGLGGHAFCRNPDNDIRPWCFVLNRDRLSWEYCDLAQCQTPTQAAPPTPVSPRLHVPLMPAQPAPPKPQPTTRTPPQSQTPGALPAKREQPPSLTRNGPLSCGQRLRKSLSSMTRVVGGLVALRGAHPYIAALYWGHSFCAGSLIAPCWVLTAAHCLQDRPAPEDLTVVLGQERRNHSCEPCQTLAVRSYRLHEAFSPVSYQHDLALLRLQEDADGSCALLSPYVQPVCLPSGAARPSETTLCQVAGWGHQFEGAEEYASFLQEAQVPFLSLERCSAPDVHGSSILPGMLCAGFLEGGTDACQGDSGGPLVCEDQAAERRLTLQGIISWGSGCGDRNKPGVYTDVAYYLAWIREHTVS
The class given is functional.

Experiment [5] is described as follows: Luminescence Cell-Based Dose Response to Identify Activators of 5'UTR Stem-Loop Driven Prion Protein mRNA Translation in H4-C Neuroglioblastoma Cells. [Related pubchem assays: 1829 (Project Summary), 1814 (Primary HTS)]. In kind it is functional.
Experiment [6] in a line: Luminescence Cell-Based Dose Response HTS to Identify Activators of Luciferase Translation or Activity in H4 […] Cells. [Related pubchem assays: 1829 (Project Summary), 1814 (Primary HTS)]. In kind it is functional.
A further experiment relates to H4. Briefly: Luminescence Cell-Based Dose Response HTS to Identify Activators of 5'UTR Stem-Loop Driven Prion Protein mRNA Translation in H4 Neuroglioblastoma Cells. [Related pubchem assays: 1829 (Project Summary), 1814 (Primary HTS)]. The class given is functional. The settings on record: Homo sapiens.
Experiment [7] is described as follows: Luminescence Cell-Based Dose Response to Identify Activators of Luciferase Translation or Activity in H4-C Neuroglioblastoma Cells. [Related pubchem assays: 1829 (Project Summary), 1814 (Primary HTS)]. The class given is functional.
A short description of experiment [8]: Luminescence Cell-Based Dose Confirmation to Identify Activators of 5'UTR Stem-Loop Driven Alpha-Synuclein mRNA Translation in H4 Neuroglioblastoma Cells. [Related pubchem assays: 1829 (Project Summary), 1814 (Primary HTS)]. In kind it is functional.
Experiment [9] concerns the target FAD-linked sulfhydryl oxidase ALR (Homo sapiens, UniProt P55789). Put plainly: inhibitors of human ALR sulfhydryl oxidase, dose response, biochemical, H2O2 detection, luminescence, cherry-pick (AID 493248).
In a further experiment the target is Beta-galactosidase (Escherichia coli, UniProt Q8VNN2). Briefly: beta-galactosidase enzyme inhibitors and activators, dose response, artefact control for CCR6 antagonist project, biochemical, E. coli enzyme, set 3 (AID 504712). In kind it is functional.
Beta-galactosidase, sequence (Q8VNN2 whole entry): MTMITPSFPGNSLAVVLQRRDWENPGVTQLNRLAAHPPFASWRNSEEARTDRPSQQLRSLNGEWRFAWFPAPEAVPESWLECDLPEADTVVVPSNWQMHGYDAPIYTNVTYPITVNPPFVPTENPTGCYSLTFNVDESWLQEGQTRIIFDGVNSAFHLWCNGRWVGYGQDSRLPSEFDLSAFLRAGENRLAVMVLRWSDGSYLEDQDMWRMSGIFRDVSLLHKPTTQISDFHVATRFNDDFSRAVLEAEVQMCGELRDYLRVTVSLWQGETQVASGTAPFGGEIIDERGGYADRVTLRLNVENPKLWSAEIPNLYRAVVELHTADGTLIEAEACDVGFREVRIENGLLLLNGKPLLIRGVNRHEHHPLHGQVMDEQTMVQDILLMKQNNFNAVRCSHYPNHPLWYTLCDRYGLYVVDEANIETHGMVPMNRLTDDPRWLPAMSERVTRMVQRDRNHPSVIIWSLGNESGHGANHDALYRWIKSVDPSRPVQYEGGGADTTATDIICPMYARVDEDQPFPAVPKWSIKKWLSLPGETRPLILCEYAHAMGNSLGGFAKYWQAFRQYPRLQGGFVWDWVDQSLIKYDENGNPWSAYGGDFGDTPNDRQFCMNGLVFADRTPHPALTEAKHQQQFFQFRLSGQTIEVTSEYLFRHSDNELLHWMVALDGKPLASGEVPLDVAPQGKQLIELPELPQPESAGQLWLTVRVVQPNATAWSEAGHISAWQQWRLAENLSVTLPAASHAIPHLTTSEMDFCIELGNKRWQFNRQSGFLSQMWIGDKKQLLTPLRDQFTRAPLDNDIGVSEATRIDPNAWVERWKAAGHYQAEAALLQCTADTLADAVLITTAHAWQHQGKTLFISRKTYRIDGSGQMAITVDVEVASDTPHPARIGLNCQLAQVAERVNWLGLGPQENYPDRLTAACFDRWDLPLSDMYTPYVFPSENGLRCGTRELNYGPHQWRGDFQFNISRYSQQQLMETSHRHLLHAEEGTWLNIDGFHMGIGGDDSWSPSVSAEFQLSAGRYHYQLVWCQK
The next experiment deals with Nonstructural protein 1 (Influenza A virus, UniProt Q194T2). The class given is functional, Influenza A virus (A/California/07/2009(H1N1)).
Experiment [10] deals with Luciferin 4-monooxygenase (Photinus pyralis, UniProt P08659). Put plainly: Counter Screen for Luciferase-based Assay Positives. [Related pubchem assays: 620, 618, 411 ]. (Counterscreens check selectivity or assay interference.)
Luciferin 4-monooxygenase, sequence (P08659 whole entry): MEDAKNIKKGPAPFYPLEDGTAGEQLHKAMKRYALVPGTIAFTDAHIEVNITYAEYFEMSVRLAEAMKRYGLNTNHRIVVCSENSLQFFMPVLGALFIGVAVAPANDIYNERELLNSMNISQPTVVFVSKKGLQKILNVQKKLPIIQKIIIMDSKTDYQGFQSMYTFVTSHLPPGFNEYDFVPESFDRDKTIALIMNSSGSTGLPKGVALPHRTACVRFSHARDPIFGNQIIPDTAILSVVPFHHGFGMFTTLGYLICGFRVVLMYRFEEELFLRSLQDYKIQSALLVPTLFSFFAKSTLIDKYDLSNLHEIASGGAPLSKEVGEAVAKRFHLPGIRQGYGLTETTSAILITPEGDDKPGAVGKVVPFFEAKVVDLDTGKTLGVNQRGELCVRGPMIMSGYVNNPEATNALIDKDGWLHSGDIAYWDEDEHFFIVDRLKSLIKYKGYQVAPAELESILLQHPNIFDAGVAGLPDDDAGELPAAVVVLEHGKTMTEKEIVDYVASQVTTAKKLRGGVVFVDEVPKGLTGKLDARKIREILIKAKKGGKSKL
The test system of the next experiment is HT-1080. Put plainly: cytotoxicity in HT1080 fibrosarcoma cells, cell-based, fluorescence readout (AID 620). Conditions: Homo sapiens. The class given is functional.
The nature of experiment [11]: Luminescence Cell-Based Dose Retest to Confirm Inhibitors of Cancer Stem Cells. [Related pubchem assays (depositor defined):AID2717, AID2721]. The class given is functional. Conditions: Homo sapiens.
Experiment [12] in a line: growth suppression of PTEN-null colon cells, dose response, cell-based, HCT116 PTEN knockout (AID 1047).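 Note: HCT116 colon tumor cells with PTEN knocked out; cells exposed to compound for 60 hours before readout; potency for loss of cell viability measured by luminescence.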 The class given is functional.
Experiment [13] can be described thus: growth suppression of beta-catenin-knockout colon cells, dose response, cell-based, HCT116, human colon tumor (AID 1045).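 Note: HCT116 colon tumor cells with beta catenin knocked out; cells exposed to compound for 60 hours.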 The class given is functional.
The target of experiment [14] is DNA damage-inducible transcript 3 protein (Mus musculus, UniProt P35639). The class given is functional, Cricetulus griseus.
Experiment [15] is described as follows: NIH-3T3 fibroblast cytotoxicity, dose response, cytotoxicity control, cell-based, fluorescence, Alamar Blue, secondary assay (AID 2327).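 Note: NIH-3T3 mouse fibroblasts cultured with fluconazole at 8 µg/mL.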 The class given is functional.
The nature of experiment [16]: C. albicans growth with fluconazole, confirmation, fluorescence, retest (AID 2467). In kind it is functional, cell-based.
The nature of experiment [17]: inhibitors of intracellular T. cruzi replication, confirmation, NIH3T3 host cells, beta-gal luminescence (AID 2044).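 Note: intracellular parasites grown in NIH/3T3 mouse fibroblasts as host cells; luminescent beta-galactosidase reporter signal from transgenic T. cruzi replicating inside host cells; inhibitors lower the luminescence signal.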 In kind it is functional, cell-based.
Experiment [18] can be described thus: cytotoxicity toward NIH3T3 fibroblasts, dose response, counter-screen, cell-based, ATP luminescence, mouse fibroblasts (AID 2010).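 Note: cells exposed to compound for about 90 hours before reading.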 The class given is functional.
Experiment [19] addresses T2, Carboxy-terminal domain RNA polymerase II polypeptide A small phosphatase 1 (Homo sapiens, UniProt Q9GZU7).
T2 sequence (Q9GZU7 whole entry): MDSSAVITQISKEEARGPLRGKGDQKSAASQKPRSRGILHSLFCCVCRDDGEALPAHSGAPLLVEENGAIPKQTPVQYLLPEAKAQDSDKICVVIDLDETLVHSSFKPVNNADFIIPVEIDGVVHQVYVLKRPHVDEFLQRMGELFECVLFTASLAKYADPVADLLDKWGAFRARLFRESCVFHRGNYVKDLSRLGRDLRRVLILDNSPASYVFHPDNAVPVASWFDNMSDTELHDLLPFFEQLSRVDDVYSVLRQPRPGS
Put plainly: inhibitors of CTDSP1, concentration-response testing, biochemical assay, absorbance-based, actives from ultra-high-throughput screening (AID 540297). The class given is functional.

Experiment [20] has as its target Peroxisome proliferator-activated receptor gamma/Nuclear receptor coactivator 2 (Homo sapiens, UniProt P37231). In kind it is functional.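 Note: agonist potency for raising coactivator recruitment to the receptor.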
Experiment [21] deals with Peroxisome proliferator-activated receptor gamma/Nuclear receptor coactivator 1 (Homo sapiens, UniProt P37231). The class given is functional.
Peroxisome proliferator-activated receptor gamma/Nuclear receptor coactivator 1, sequence (P37231 whole entry): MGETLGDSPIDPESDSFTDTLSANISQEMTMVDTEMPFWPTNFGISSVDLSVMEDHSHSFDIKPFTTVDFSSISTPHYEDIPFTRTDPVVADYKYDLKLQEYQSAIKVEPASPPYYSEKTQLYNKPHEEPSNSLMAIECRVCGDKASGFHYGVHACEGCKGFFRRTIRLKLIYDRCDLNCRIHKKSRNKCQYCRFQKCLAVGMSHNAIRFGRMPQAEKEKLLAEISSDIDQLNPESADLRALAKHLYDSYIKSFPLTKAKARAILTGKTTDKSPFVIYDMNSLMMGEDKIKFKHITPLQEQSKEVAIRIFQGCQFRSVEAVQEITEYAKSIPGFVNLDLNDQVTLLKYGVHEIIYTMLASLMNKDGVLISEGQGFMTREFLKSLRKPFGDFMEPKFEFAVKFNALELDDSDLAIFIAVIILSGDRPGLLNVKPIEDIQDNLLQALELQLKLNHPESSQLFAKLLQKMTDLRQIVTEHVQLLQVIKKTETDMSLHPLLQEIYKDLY
Peroxisome proliferator-activated receptor gamma/Nuclear receptor coactivator 1, sequence (Q15788 whole entry, further chain): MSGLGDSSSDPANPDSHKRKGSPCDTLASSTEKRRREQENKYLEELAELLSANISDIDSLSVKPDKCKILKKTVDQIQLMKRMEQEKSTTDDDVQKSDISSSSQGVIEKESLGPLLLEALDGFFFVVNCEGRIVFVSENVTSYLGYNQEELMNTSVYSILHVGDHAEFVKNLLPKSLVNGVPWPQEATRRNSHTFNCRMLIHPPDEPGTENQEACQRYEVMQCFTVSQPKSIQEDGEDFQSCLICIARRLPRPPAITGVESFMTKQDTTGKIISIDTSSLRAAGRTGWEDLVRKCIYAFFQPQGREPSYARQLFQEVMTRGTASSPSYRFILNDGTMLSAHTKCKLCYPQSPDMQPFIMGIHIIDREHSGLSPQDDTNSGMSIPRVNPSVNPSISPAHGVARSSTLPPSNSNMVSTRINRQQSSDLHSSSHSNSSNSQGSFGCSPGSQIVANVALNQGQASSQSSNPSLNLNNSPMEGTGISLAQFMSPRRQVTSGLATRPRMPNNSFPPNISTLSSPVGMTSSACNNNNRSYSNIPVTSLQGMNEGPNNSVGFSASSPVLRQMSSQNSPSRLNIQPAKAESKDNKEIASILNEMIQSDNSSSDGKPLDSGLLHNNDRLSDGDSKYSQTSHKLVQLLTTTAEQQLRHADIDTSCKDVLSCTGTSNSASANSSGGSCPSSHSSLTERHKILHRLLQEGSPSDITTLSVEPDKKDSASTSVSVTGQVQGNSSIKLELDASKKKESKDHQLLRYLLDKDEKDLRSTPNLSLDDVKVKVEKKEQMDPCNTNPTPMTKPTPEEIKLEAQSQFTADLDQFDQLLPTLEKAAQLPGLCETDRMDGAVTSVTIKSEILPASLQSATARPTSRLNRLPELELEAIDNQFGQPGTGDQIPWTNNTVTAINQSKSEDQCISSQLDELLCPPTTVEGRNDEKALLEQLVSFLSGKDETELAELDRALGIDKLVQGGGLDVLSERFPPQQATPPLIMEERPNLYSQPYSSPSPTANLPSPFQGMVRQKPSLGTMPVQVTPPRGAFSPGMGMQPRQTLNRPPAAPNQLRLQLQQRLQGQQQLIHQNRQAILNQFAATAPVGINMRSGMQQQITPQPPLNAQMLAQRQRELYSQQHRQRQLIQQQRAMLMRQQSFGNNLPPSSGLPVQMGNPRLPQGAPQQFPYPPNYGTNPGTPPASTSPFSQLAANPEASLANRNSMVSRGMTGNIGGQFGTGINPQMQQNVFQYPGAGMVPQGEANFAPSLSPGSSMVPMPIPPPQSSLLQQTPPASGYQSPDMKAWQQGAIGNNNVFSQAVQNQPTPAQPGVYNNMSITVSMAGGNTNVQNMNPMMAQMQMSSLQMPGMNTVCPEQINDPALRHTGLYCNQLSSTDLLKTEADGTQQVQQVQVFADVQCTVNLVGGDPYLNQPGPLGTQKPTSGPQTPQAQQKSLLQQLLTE
In experiment [22] the target is Peroxisome proliferator-activated receptor gamma/Nuclear receptor coactivator 3 (Homo sapiens, UniProt P37231). In kind it is functional.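 Note: agonist potency for raising coactivator recruitment to the receptor.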

Active and inactive are the calls of the source.

DNA dC->dU-editing enzyme APOBEC-3G, sequence (Q9HC16 whole entry): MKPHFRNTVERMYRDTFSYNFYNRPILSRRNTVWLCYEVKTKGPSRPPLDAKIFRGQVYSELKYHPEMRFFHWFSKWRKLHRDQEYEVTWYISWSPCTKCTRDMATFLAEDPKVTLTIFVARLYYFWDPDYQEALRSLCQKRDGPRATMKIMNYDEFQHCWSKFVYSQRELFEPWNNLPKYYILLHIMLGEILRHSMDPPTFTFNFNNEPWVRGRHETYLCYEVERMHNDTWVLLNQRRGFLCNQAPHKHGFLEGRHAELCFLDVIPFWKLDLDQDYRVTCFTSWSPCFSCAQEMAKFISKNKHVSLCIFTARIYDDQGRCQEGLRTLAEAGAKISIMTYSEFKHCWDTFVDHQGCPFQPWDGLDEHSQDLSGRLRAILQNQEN
DNA dC->dU-editing enzyme APOBEC-3A, sequence (P31941 whole entry): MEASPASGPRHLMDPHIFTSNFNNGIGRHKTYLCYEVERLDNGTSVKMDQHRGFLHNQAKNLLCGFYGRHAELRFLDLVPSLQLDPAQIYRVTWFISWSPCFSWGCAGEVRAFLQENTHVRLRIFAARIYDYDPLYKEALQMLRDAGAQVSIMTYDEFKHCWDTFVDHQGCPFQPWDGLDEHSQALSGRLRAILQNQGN

Turning to `CC(C)[N+](C)(C)CC#CC(O)(c1ccccc1)c1ccccc1`, the IC50 in experiment [1] was > 100 µM (inactive); in experiment [2] it was 9.63 µM (active); in experiment [3], 2.55 µM (active); in [4], 2.49 µM (active).

Take `CCOC(=O)CNC(=O)Cc1ccc(OC)cc1`: the IC50 on Coagulation factor XII is > 50 µM (inactive).

For `CC(C)(C#CCCCCC#CC(C)(C)[N+](C)(C)C)[N+](C)(C)C`, the IC50 is > 100 µM (inactive) in experiment [1] and 7.97 µM (active) in experiment [2].

Take `CN(C)c1ccc(/C=C/c2nnnn2-c2ccccc2)cc1`: the EC50 was 0.463 µM (active) in [5]; < 0.1 µM (inconclusive) in experiment [6]; < 0.1 µM (active) in the experiment with H4; 0.323 µM (active) in experiment [7]; 0.365 µM (active) in experiment [8]. The concentration at half-maximal activity (AC50) in [9] is 0.894 µM (active).

In the case of `O=[N+]([O-])c1ccc(O)c(/C=N/Nc2nn[nH]n2)c1`, the IC50 on Beta-galactosidase is > 66.6 µM (inactive); on Nonstructural protein 1 it was 1.66 µM (active).

As to `CCCCCCOc1ccc(CN2CCN(CCO)CC2)cc1`, the values for the EC50 (in experiment [10]; in the experiment on HT-1080) were 1.74 µM (active) and > 50 µM (not active), respectively. Further, the AC50 in [11] was < 0.16 µM (active).

As for `COc1ccc(OC)c2sc(NC(=O)c3ccc(Cl)s3)nc12`, the values for the EC50 in experiment [12] and in [13] were 11.8 µM (active) and 9.28 µM (active), respectively. Besides, in experiment [14], the “Absolute IC50 (CHOP)” value was 10 µM.

`CC1(C)CC(N2CCCC2)=CC(=[N+]2CCCC2)C1`: the EC50 in experiment [15] was > 160 µM (inactive); in experiment [16] it was 2.7 µM (active); in experiment [17] it was 0.693 µM (active); in experiment [18], > 60 µM (not active). The values for the IC50 in experiment [3], in [4] and in experiment [19] were 1.53 µM (active), 1.47 µM (active) and 3.62 µM (active), respectively.

For the compound `CCOc1ccc(CCNC(=O)CSc2nn(-c3ccc(C)c(Cl)c3)c(=S)s2)cc1OCC`, the results for the EC50 in experiment [20], in experiment [21] and in experiment [22] were 51.9 µM (not active), > 79.4 µM (not active) and > 79.4 µM (not active), respectively.
